Laboratory results published in US10765647B2, “Composition for treating diabetes, containing extract of yukmijihwangtang” (COMPREHENSIVE AND INTEGRATIVE MEDICINE INSTITUTE, priority 2013, dated 2020).

Legend:
STZ-induced diabetes rat [1] = test: STZ-induced diabetes rats: body weight and body weight gain; type: in vivo, Sprague-Dawley (SD) rats; details: vs STZ control, YMJHT 400 mg/kg
Experimental: (§1) As the laboratory animals, Sprague-Dawley (SD), Slc:SD rats (6-week-old females, SLC, Shizuoka, Japan) were used, an experiment method was briefly illustrated in FIG. 5A, and the design of experimental groups is shown in FIG. 5B.
(§2) 105 SD rats were purchased, and 21 days after STZ administration, only rats having uniform body weights ([…]) and blood sugar levels (257˜358 mg/dl) were selected. Among those, 8 rats per group were used in the experiment, and separate 8 rats were also prepared as the intact vehicle control (body weight: 200˜262 g; blood sugar level: 88˜100 mg/dl).
(§3) STZ was diluted with 50 mM citrate buffer (pH 6.0), and the resultant diluent was peritoneally administered once at a dose of 60 mg/kg/5 ml to induce diabetes, and in the intact vehicle control, instead of STZ, the same dose of citrate buffer was solely administered in the same route.
(1) Change in body weight: Body weight gains during diabetes induction and administration of a candidate material for 28 days

STZ-induced diabetes rat [2] = test: STZ-induced diabetes rats: antidiabetic effect (blood sugar, pancreas); type: in vivo, Sprague-Dawley (SD) rats; details: vs STZ control, YMJHT 400 mg/kg
Experimental: as §1, §2, §3
(2) Antidiabetic effect: Change in blood sugar level, morphological change in pancreas tissue—changes in the number and diameter of pancreatic islets, and numerical changes in insulin and glucagon immunoreactive cells
(§4) To clarify degrees of inducing diabetes and diabetic complications, blood sugar levels was measured at 21 days after the STZ administration and 28 days after the administration of a candidate material, and then a difference between them was estimated. Also, to minimize a difference between organ weights depending on a body weight, an absolute weight was measured, and then a ratio to the body weight, that is, a relative weight, was calculated.

STZ-induced diabetes rat [3] = test: STZ-induced diabetes rats: liver protecting effect; type: in vivo, Sprague-Dawley (SD) rats; details: vs STZ control; single treated: metformin 500 mg/kg, YMJHT 400 mg/kg; daily 28 days
Experimental: as §1, §2, §3
(3) Liver protecting effect: changes in the liver weight, blood AST and ALT contents, histopathological findings on the liver—(Degeneration rate of the liver: ratio of degenerated liver cells per mm^2 of hepatocyte, number of liver cells: number of liver cells observed per mm^2 of hepatocyte).
as §4

STZ-induced diabetes rat [4] = test: STZ-induced diabetes rats: kidney protecting effect; type: in vivo, Sprague-Dawley (SD) rats; details: vs STZ control; single treated: metformin 500 mg/kg, YMJHT 400 mg/kg; daily 28 days
Experimental: as §1, §2, §3
(4) Kidney protecting effect: kidney weights, changes in blood BUN and creatinine, histopathological findings on kidney—numbers of degenerated renal tubules and glomeruli
as §4

STZ-induced diabetes rat [5] = test: STZ-induced diabetes rats: antihyperlipidemic effect; type: in vivo, Sprague-Dawley (SD) rats; details: vs STZ control; single treated: metformin 500 mg/kg, YMJHT 400 mg/kg; daily 28 days
Experimental: as §1, §2, §3

STZ-induced diabetes rat [6] = test: STZ-induced diabetes rats: immune activity effect (thymus, spleen); type: in vivo, Sprague-Dawley (SD) rats; details: vs STZ control; single treated: metformin 500 mg/kg, YMJHT 400 mg/kg; daily 28 days
Experimental: as §1, §2, §3
(6) Immune activity effect: thymus and spleen weights and histopathological findings—changes in spleen thickness, the number of white pulps and diameter, changes in thymus lobules and cortex thicknesses
as §4

STZ-induced diabetes rat [7] = test: STZ-induced diabetes rats: ocular protecting effect; type: in vivo, Sprague-Dawley (SD) rats; details: vs STZ control; single treated: metformin 500 mg/kg, YMJHT 400 mg/kg; daily 28 days
Experimental: as §1, §2, §3

STZ-induced diabetes rat [8] = test: STZ-induced diabetes rats: antioxidative defense system in kidney; type: in vivo, Sprague-Dawley (SD) rats; details: vs STZ control; single treated: metformin 500 mg/kg, YMJHT 400 mg/kg; daily 28 days
Experimental: as §1, §2, §3
(8) Change in antioxidative defense system in kidney: lipid peroxidation in kidney (nM of malondialdehyde (MDA)/g protein), endogenous antioxidant—glutathione (GSH) content (nM/g protein), antioxidant enzyme—Changes in catalase and superoxide dismutase (SOD) activities (U/mg protein)

in vivo = details: male, SD, rat, plasma, po, 500 mg/kg
[9] = before administration, single treated groups: metformin 500 mg/kg
[10] = single treated: metformin 500 mg/kg, daily 28 days

SMILES: CN(C)C(=N)N=C(N)N [metformin]
- Body weight gains during the diabetes induction, change (STZ-induced diabetes rat [1]; [9]): 45.45%
- Body weight gains during the 28-day administration, change (STZ-induced diabetes rat [1]; [10]): 193.31%
- Blood sugar level at 21 days after the STZ administration, change (STZ-induced diabetes rat [2]; [9]): 1.68%
- Blood sugar level at 28 days after the STZ administration, change (STZ-induced diabetes rat [2]; [10]): −27.25%
- Blood sugar variation from 21 days after the STZ administration to 28 days after the administration of a candidate material, change (STZ-induced diabetes rat [2]; [10]): −59.39%
- Mean diameters of the pancreatic islets, change (STZ-induced diabetes rat [2]; [10]): 97.80%
- Numbers of insulin immunoreactive cells in the pancreatic islet, change (STZ-induced diabetes rat [2]; [10]): 202.99%
- Numbers of pancreatic islets per unit area, change (STZ-induced diabetes rat [2]; [10]): 120.93%
- Numbers of the glucagon immunoreactive cells in the pancreatic islet, change (STZ-induced diabetes rat [2]; [10]): −27.78%
- Pancreas absolute weights, change (STZ-induced diabetes rat [2]; [10]): 7.95%
- Relative pancreas weights with respect to the body weight, change (STZ-induced diabetes rat [2]; [10]): −7.49%
- Absolute weight of the liver, change (STZ-induced diabetes rat [3]): −14.38%
- Blood ALT content, change (STZ-induced diabetes rat [3]): −32.72%
- Blood AST content, change (STZ-induced diabetes rat [3]): −32.82%
- Hepatic degeneration rate, change (STZ-induced diabetes rat [3]): −29.61%
- Number of mean hepatocytes per unit area, change (STZ-induced diabetes rat [3]): 60.58%
- Relative weight of the liver, change (STZ-induced diabetes rat [3]): −27.69%
- Absolute weight of the kidney, change (STZ-induced diabetes rat [4]): −21.29%
- Blood BUN content, change (STZ-induced diabetes rat [4]): −31.69%
- Blood creatinine content, change (STZ-induced diabetes rat [4]): −31.29%
- Number of degenerated glomeruli, change (STZ-induced diabetes rat [4]): −36.94%
- Number of degenerated renal tubules, change (STZ-induced diabetes rat [4]): −29.90%
- Relative weight of the kidney, change (STZ-induced diabetes rat [4]): −32.41%
- Blood HDL content, change (STZ-induced diabetes rat [5]): 27.12%
- Blood LDL content, change (STZ-induced diabetes rat [5]): −29.08%
- Total cholesterol content in blood, change (STZ-induced diabetes rat [5]): −30.57%
- Triglyceride content in blood, change (STZ-induced diabetes rat [5]): −29.72%
- Absolute weight of the spleen, change (STZ-induced diabetes rat [6]): 31.35%
- Absolute weight of the thymus, change (STZ-induced diabetes rat [6]): 73.03%
- Mean diameter of the white pulp, change (STZ-induced diabetes rat [6]): 101.18%
- Number of white pulps per unit area (100 mm^2), change (STZ-induced diabetes rat [6]): 76.53%
- Relative weight of the spleen, change (STZ-induced diabetes rat [6]): 12.17%
- Relative weight of the thymus, change (STZ-induced diabetes rat [6]): 50.71%
- Total thickness of the spleen, change (STZ-induced diabetes rat [6]): 36.43%
- Total thickness of the thymus cortex, change (STZ-induced diabetes rat [6]): 78.00%
- Total thickness of the thymus lobules, change (STZ-induced diabetes rat [6]): 198.88%
- Lens damage score, change (STZ-induced diabetes rat [7]): −33.33%
- Number of blood vessels present in an internal limiting membrane, change (STZ-induced diabetes rat [7]): −44.55%
- Observer-based scores for cataract, change (STZ-induced diabetes rat [7]): −38.89%
- Quantitative image scores for cataract, change (STZ-induced diabetes rat [7]): −40.56%
- Thickness of the damaged part of the lens, change (STZ-induced diabetes rat [7]): −46.34%
- Thickness of the inner nuclear layer in the retina, change (STZ-induced diabetes rat [7]): 44.29%
- Thickness of the plexiform layer in the retina, change (STZ-induced diabetes rat [7]): 32.03%
- Total thickness of the retina, change (STZ-induced diabetes rat [7]): 33.45%
- Catalase activity in the renal tissue, change (STZ-induced diabetes rat [8]): 48.59%
- Content of the endogenous antioxidant in the renal tissue, GSH, change (STZ-induced diabetes rat [8]): 64.65%
- MDA content in the kidney tissue (lipid peroxidation indicator), change (STZ-induced diabetes rat [8]): −32.56%
- SOD activity in the renal tissue, change (STZ-induced diabetes rat [8]): 51.47%
- Cmax (in vivo): 20200 ± 3420 ng/mL
